These results are taken from paper PMC10254235, “Design, Synthesis, and Anti-Cervical Cancer and Reversal of Tumor Multidrug Resistance Activity of Novel Nitrogen-Containing Heterocyclic Chalcone Derivatives” (Molecules, 2023).

Molecules are shown by their SMILES. Like-named read-outs stand apart in the source and are kept apart here.

Holding throughout (format): cell-based, human
One experiment concerns HeLa cells. The experiment is described as follows: MTT antiproliferative assay, HeLa cells. The conditions noted are these: 48 h. The protocol:
(§1) HeLa and SiHa cell lines were obtained from the Procell Life Science Technology Co., Ltd. (Wuhan, China); H8 cell line was obtained from the Shanghai HonSun Biological Technology Co., Ltd. (Shanghai, China); HUVEC cell line was obtained from the Saibaikang (Shanghai) Biotechnology Co., Ltd. (Shanghai, China); HeLa/DDP cell line was obtained from the Guangzhou Jenniobio Biotechnology Co., Ltd. (Guangzhou, China). HeLa, SiHa, H8, and HeLa/DDP cells were cultured in DMEM medium (HyClone). The VEGF of 50 ng/mL was used as the promoter of the VEGFR-2 receptor on HUVEC cell membrane surfaces, and their inhibitory effects on VEGFR-2 were determined. All the mediums were supplemented with 10% FBS (HyClone, GE Healthcare, Australia). Cells were maintained at subconfluency at 37 °C in humidified air containing 5% CO2. The cells were monitored daily and maintained at 80% cell density. All compounds tested were dissolved in DMSO and then diluted by the culture medium before the treatment of cultured cells. Identification reports are available for all types of cell lines involved in this study.
(§2) The cytotoxicity of the target compounds were measured in vitro using the MTT assay. Cells grown in the logarithmic phase were counted and seeded in 96-well cell culture plates (5 × 10^3 cells per well) for 24 h to allow attachment of cells to the wall of the plate. […] Next, 20 μL of 5 mg.mL^−1 MTT solution was added to each well and cultured for 4 h. The old solution was discarded, replaced with 150 μL DMSO solution per well, and shaken for 10 min. The OD value was measured under 490 nm, and the inhibition rate was calculated. The nonlinear regression fitting of the cell growth rate was carried out using SPSS 23.0 software, and the IC50 of the compound was calculated. […] There were 6 compound holes in each group, and the experimental results were presented as the average of 3 experiments. A complete medium containing only cells was used as the blank control, whereas a complete medium without cells was the negative control group. Cisplatin and sorafenib were utilized as the positive control group, and the target compound was the experimental intervention group.

A further experiment deals with SiHa cells. The experiment is described as follows: MTT antiproliferative assay, SiHa cells. The conditions noted are these: 48 h, mean ± SD. The procedure:
as §1, §2

The next experiment has as its system H8 cells. The experiment is described as follows: MTT cytotoxicity assay, normal cervical epithelial H8 cells. The note with it: 48 h, mean ± SD. The procedure: as §1, §2
The test system of the next experiment is HeLa/DDP cells. The experiment is described as follows: MTT assay, cisplatin-resistant HeLa/DDP cells. The note with it: single agent; for RI (resistance index): HeLa/DDP versus HeLa; for IC50: cisplatin-resistant HeLa/DDP cells, 48 h, read-out: 48h IC50 HeLa/DDP.
The mark [1] stands for this setting: Homo sapiens, MTT, mean ± SD, read-out: 48h IC50 HeLa.
Where [2] appears, read: Homo sapiens, single agent, read-out: 48h IC50 HeLa (Table 4).

Method for HeLa/DDP cells: The cytotoxicity of the target compounds were measured in vitro using the MTT assay. Cells grown in the logarithmic phase were counted and seeded in 96-well cell culture plates (5 × 10^3 cells per well) for 24 h to allow attachment of cells to the wall of the plate. […] Next, 20 μL of 5 mg.mL^−1 MTT solution was added to each well and cultured for 4 h. The old solution was discarded, replaced with 150 μL DMSO solution per well, and shaken for 10 min. The OD value was measured under 490 nm, and the inhibition rate was calculated. The nonlinear regression fitting of the cell growth rate was carried out using SPSS 23.0 software, and the IC50 of the compound was calculated. […] A complete medium containing only cells was used as the blank control, whereas a complete medium without cells was the negative control group.
To reduce the adverse reactions caused by the fixation of drug resistance reversal agents, the concentration that reduces the proliferation rate of tumor cells by less than 10% was selected.

`COc1cc(O)c(C(=O)/C=C/c2ccc(CN3CCN(C)CC3)cc2)cc1CN1CCCC1` [6m, (E)-1-(2-hydroxy-4-methoxy-5-(pyrrolidin-1-ylmethyl)phenyl)-3-(4-((4-methylpiperazin-1-yl)methyl)phenyl)prop-2-en-1-one]: the IC50 in the experiment on HeLa cells (setting [1]) was 52.43 ± 0.42 µM; in the experiment on SiHa cells (Homo sapiens), > 100 µM; in the experiment on H8 cells (Homo sapiens), > 100 µM.

Turning to `COc1cc(O)c(C(=O)/C=C/c2ccc(CN3CCC(OC)CC3)cc2)cc1CN1CCCC1` [6l, (E)-1-(2-hydroxy-4-methoxy-5-(pyrrolidin-1-ylmethyl)phenyl)-3-(4-((4-methoxypiperidin-1-yl)methyl)phenyl)prop-2-en-1-one], the IC50 in the experiment with HeLa cells (setting [1]), in the experiment with SiHa cells (Homo sapiens) and in the experiment on H8 cells (Homo sapiens) was > 100 µM in each case.

For `COc1cccc2c1C(=O)c1c(O)c3c(c(O)c1C2=O)C[C@@](O)(C(=O)CO)C[C@@H]3O[C@H]1C[C@H](N)[C@H](O)[C@H](C)O1` [Doxorubicin], the results for the IC50 in the experiment on HeLa cells (setting [2]) and in the experiment with HeLa/DDP cells (Homo sapiens) were 10.6 ± 0.5 µM and 41.6 ± 2.05 µM, respectively. In the experiment on HeLa/DDP cells, the “RI (resistance index)” value is reported as 3.93.

`COc1cc(O)c(C(=O)/C=C/c2ccc(CN3CCOCC3)cc2)cc1CN1CCC(OC)CC1` [6h, (E)-1-(2-hydroxy-4-methoxy-5-((4-methoxypiperidin-1-yl)methyl)phenyl)-3-(4-(morpholinomethyl)phenyl)prop-2-en-1-one]: the IC50 in the experiment with HeLa cells (setting [1]), in the experiment with SiHa cells (Homo sapiens) and in the experiment with H8 cells (Homo sapiens) was > 100 µM in each case.

Regarding `COc1cc(O)c(C(=O)/C=C/c2ccc(CN3CCCC3)cc2)cc1CN1CCC(C)CC1` [6s, (E)-1-(2-hydroxy-4-methoxy-5-((4-methylpiperidin-1-yl)methyl)phenyl)-3-(4-(pyrrolidin-1-ylmethyl)phenyl)prop-2-en-1-one], the IC50 in the experiment with HeLa cells (setting [1]) is 30.9 ± 0.39 µM; in the experiment on SiHa cells (Homo sapiens), 36.1 ± 1.71 µM; in the experiment on H8 cells (Homo sapiens) it was 35.4 ± 0.61 µM.

For `COc1cc(O)c(C(=O)/C=C/c2ccc(CN3CCN(C)CC3)cc2)cc1CN1CCC(O)CC1` [6d, (E)-1-(2-hydroxy-5-((4-hydroxypiperidin-1-yl)methyl)-4-methoxyphenyl)-3-(4-((4-methylpiperazin-1-yl)methyl)phenyl)prop-2-en-1-one], the IC50 with HeLa cells (setting [1]), with SiHa cells (Homo sapiens) and with H8 cells (Homo sapiens) was > 100 µM in each case.

On to `COc1cc(O)c(C(=O)/C=C/c2ccc(CN3CCN(C)CC3)cc2)cc1CN1CCC(C)CC1` [6t, (E)-1-(2-hydroxy-4-methoxy-5-((4-methylpiperidin-1-yl)methyl)phenyl)-3-(4-((4-methylpiperazin-1-yl)methyl)phenyl)prop-2-en-1-one], for which the IC50 in the experiment on HeLa cells (setting [1]) is 30.9 ± 0.18 µM; in the experiment with SiHa cells (Homo sapiens), 36 ± 6.3 µM; in the experiment with H8 cells (Homo sapiens), 42.11 ± 0.31 µM.

As for `CC(=O)O[C@H]1C(=O)[C@@]2(C)[C@H]([C@H](OC(=O)c3ccccc3)[C@]3(O)C[C@H](OC(=O)[C@H](O)[C@@H](NC(=O)c4ccccc4)c4ccccc4)C(C)=C1C3(C)C)[C@]1(OC(C)=O)CO[C@@H]1C[C@@H]2O` [Paclitaxel, reference compound], the IC50 in the experiment on HeLa cells (setting [2]) stood at 20.1 ± 1.05 µM; in the experiment with HeLa/DDP cells (Homo sapiens) it was 125 ± 5.3 µM.

On to `COc1cc(O)c(C(=O)/C=C/c2ccc(CN3CCCC3)cc2)cc1CN1CCC(O)CC1` [6c, (E)-1-(2-hydroxy-5-((4-hydroxypiperidin-1-yl)methyl)-4-methoxyphenyl)-3-(4-(pyrrolidin-1-ylmethyl)phenyl)prop-2-en-1-one], for which the IC50 in the experiment with HeLa cells (setting [1]) came to 32.17 ± 0.14 µM; with SiHa cells (Homo sapiens), 44.49 ± 0.38 µM; in the experiment with H8 cells (Homo sapiens), 34 ± 4.14 µM.

In the case of `COc1cc(O)c(C(=O)/C=C/c2ccc(CN3CCOCC3)cc2)cc1CN1CCOCC1` [6n, (E)-1-(2-hydroxy-4-methoxy-5-(morpholinomethyl)phenyl)-3-(4-(morpholinomethyl)phenyl)prop-2-en-1-one], the IC50 with HeLa cells (setting [1]), with SiHa cells (Homo sapiens) and in the experiment with H8 cells (Homo sapiens) was > 100 µM each time.

On to `COc1cc(O)c(C(=O)/C=C/c2ccc(CN3CCC(OC)CC3)cc2)cc1CN1CCOCC1` [6p, (E)-1-(2-hydroxy-4-methoxy-5-(morpholinomethyl)phenyl)-3-(4-((4-methoxypiperidin-1-yl)methyl)phenyl)prop-2-en-1-one], for which the IC50 in the experiment with HeLa cells (setting [1]) was found to be 79.9 ± 2.4 µM; with SiHa cells (Homo sapiens), 66.04 ± 0.49 µM; with H8 cells (Homo sapiens) it was 85.4 ± 3.92 µM.

In the case of `COc1cc(O)c(C(=O)/C=C/c2ccc(CN3CCC(O)CC3)cc2)cc1CN1CCC(O)CC1` [6a, (E)-1-(2-hydroxy-5-((4-hydroxypiperidin-1-yl)methyl)-4-methoxyphenyl)-3-(4-((4-hydroxypiperidin-1-yl)methyl)phenyl)prop-2-en-1-one], the IC50 was 72.9 ± 0.12 µM in the experiment with HeLa cells (setting [1]), > 100 µM in the experiment on SiHa cells (Homo sapiens) and > 100 µM with H8 cells (Homo sapiens).

On to `COc1cc(O)c(C(=O)/C=C/c2ccc(CN3CCC(O)CC3)cc2)cc1CN1CCCC1` [6i, (E)-1-(2-hydroxy-4-methoxy-5-(pyrrolidin-1-ylmethyl)phenyl)-3-(4-((4-hydroxypiperidin-1-yl)methyl)phenyl)prop-2-en-1-one], for which the IC50 with HeLa cells (setting [1]) is 46.15 ± 0.35 µM; with SiHa cells (Homo sapiens) it was 77.02 ± 0.22 µM; in the experiment with H8 cells (Homo sapiens), 71.64 ± 0.48 µM.

`COc1cc(O)c(C(=O)/C=C/c2ccc(CN3CCOCC3)cc2)cc1CN1CCC(C)CC1` [6q, (E)-1-(2-hydroxy-4-methoxy-5-((4-methylpiperidin-1-yl)methyl)phenyl)-3-(4-(morpholinomethyl)phenyl)prop-2-en-1-one]: the IC50 is 88.17 ± 0.72 µM with HeLa cells (setting [1]), > 100 µM with SiHa cells (Homo sapiens) and > 100 µM with H8 cells (Homo sapiens).

For the molecule `COc1cc(O)c(C(=O)/C=C/c2ccc(CN3CCC(OC)CC3)cc2)cc1CN1CCC(O)CC1` [6b, (E)-1-(2-hydroxy-5-((4-hydroxypiperidin-1-yl)methyl)-4-methoxyphenyl)-3-(4-((4-methoxypiperidin-1-yl)methyl)phenyl)prop-2-en-1-one], the IC50 in the experiment on HeLa cells (setting [1]) worked out at 40.13 ± 0.11 µM; in the experiment on SiHa cells (Homo sapiens), 57.1 ± 1.3 µM; with H8 cells (Homo sapiens) it was 82.5 ± 5.21 µM.

For the molecule `COc1cc(O)c(C(=O)/C=C/c2ccc(CN3CCC(C)CC3)cc2)cc1CN1CCC(OC)CC1` [6g, (E)-1-(2-hydroxy-4-methoxy-5-((4-methoxypiperidin-1-yl)methyl)phenyl)-3-(4-((4-methylpiperidin-1-yl)methyl)phenyl)prop-2-en-1-one], the IC50 amounted to 47.05 ± 0.11 µM with HeLa cells (setting [1]), 85.04 ± 0.47 µM with SiHa cells (Homo sapiens) and 72.9 ± 1.08 µM in the experiment on H8 cells (Homo sapiens).

On to `COc1cc(O)c(C(=O)/C=C/c2ccc(CN3CCOCC3)cc2)cc1CN1CCCC1` [6j, (E)-1-(2-hydroxy-4-methoxy-5-(pyrrolidin-1-ylmethyl)phenyl)-3-(4-(morpholinomethyl)phenyl)prop-2-en-1-one], for which the values for the IC50 with HeLa cells (setting [1]), with SiHa cells (Homo sapiens) and in the experiment on H8 cells (Homo sapiens) were 37.74 ± 0.22 µM, 47.65 ± 0.19 µM and 58.46 ± 0.19 µM, respectively.

Turning to `COc1cc(O)c(C(=O)/C=C/c2ccc(CN3CCC(C)CC3)cc2)cc1CN1CCN(C)CC1` [6u, (E)-1-(2-hydroxy-4-methoxy-5-((4-methylpiperazin-1-yl)methyl)phenyl)-3-(4-((4-methylpiperidin-1-yl)methyl)phenyl)prop-2-en-1-one], the IC50 with HeLa cells (setting [1]) came to 28.01 ± 0.14 µM; in the experiment on SiHa cells (Homo sapiens), 28.2 ± 0.5 µM; in the experiment with H8 cells (Homo sapiens) it was 42.5 ± 0.85 µM.

In the case of `N.N.[Cl][Pt][Cl]` [Cisplatin, reference compound], the IC50 in the experiment on HeLa cells (MTT, mean ± SD, read-out: 48h IC50 HeLa) is 13.6 ± 1.63 µM; with HeLa cells (single agent, read-out: 48h IC50 HeLa (Table 4)) it was 13.6 ± 1.63 µM; in the experiment with HeLa/DDP cells it was 100 ± 7.94 µM; in the experiment with SiHa cells, 21.6 ± 2.9 µM; in the experiment with H8 cells it was 24.8 ± 1.37 µM. Besides, the “RI (resistance index)” value in the experiment on HeLa/DDP cells was determined as 7.36.

Take `COc1cc(O)c(C(=O)/C=C/c2ccc(CN3CCOCC3)cc2)cc1CN1CCC(O)CC1` [6e, (E)-1-(2-hydroxy-5-((4-hydroxypiperidin-1-yl)methyl)-4-methoxyphenyl)-3-(4-(morpholinomethyl)phenyl)prop-2-en-1-one]: the IC50 in the experiment with HeLa cells (setting [1]) was 56.7 ± 0.59 µM; with SiHa cells (Homo sapiens), > 100 µM; in the experiment with H8 cells (Homo sapiens) it was 75.69 ± 0.49 µM.

For the molecule `COc1cc(O)c(C(=O)/C=C/c2ccc(CN3CCC(C)CC3)cc2)cc1CN1CCC(C)CC1` [6r, (E)-1-(2-hydroxy-4-methoxy-5-((4-methylpiperidin-1-yl)methyl)phenyl)-3-(4-((4-methylpiperidin-1-yl)methyl)phenyl)prop-2-en-1-one], the IC50 in the experiment on HeLa cells (setting [1]) came out at 25.5 ± 1.21 µM; with SiHa cells (Homo sapiens) it was 36.6 ± 1.94 µM; in the experiment with H8 cells (Homo sapiens) it was 42.2 ± 0.8 µM.
